Data reported in ChEMBL document CHEMBL1137802, “Specific antioxidant activity of caffeoyl derivatives and other natural phenolic compounds: LDL protection against oxidation and decrease in the proinflammatory lysophosphatidylcholine production” (J Nat Prod, 2001).

Legend:
Type in all cases: functional, cell-free
[1] = Antioxidant activity against Cu2+-induced lipid peroxidation in human plasma LDL assessed as conjugated diene formation at 5 umol/L preincubated for 1 hr before Cu2+ challenge measured after 90 mins
[2] = Antioxidant activity against Cu2+-induced lipid peroxidation in human plasma LDL assessed as vitamin E consumption at 5 umol/L preincubated for 1 hr before Cu2+ challenge measured after 30 mins
[3] = Antioxidant activity against Cu2+-induced lipid peroxidation in human plasma LDL assessed as maximal compound concentration at 5 umol/L preincubated for 1 hr before Cu2+ challenge measured after 60 mins relative to compound present at 0 min
[4] = Antioxidant activity against Cu2+-induced lipid peroxidation in human plasma LDL assessed as conjugated diene formation at 10 umol/L preincubated for 1 hr before Cu2+ challenge measured after 150 mins
[5] = Antioxidant activity against Cu2+-induced lipid peroxidation in human plasma LDL assessed as maximal compound concentration at 5 umol/L preincubated for 1 hr before Cu2+ challenge measured after 45 mins relative to compound present at 0 min
[6] = Antioxidant activity against Cu2+-induced lipid peroxidation in human plasma LDL assessed as vitamin E consumption at 10 umol/L preincubated for 1 hr before Cu2+ challenge measured after 150 mins
[7] = Antioxidant activity against Cu2+-induced lipid peroxidation in human plasma LDL assessed as conjugated diene formation at 10 umol/L preincubated for 1 hr before Cu2+ challenge measured after 90 mins
[8] = Antioxidant activity against Cu2+-induced lipid peroxidation in human plasma LDL assessed as maximal compound concentration at 20 umol/L preincubated for 1 hr before Cu2+ challenge measured after 270 mins relative to compound present at 0 min
[9] = Antioxidant activity against Cu2+-induced lipid peroxidation in human plasma LDL assessed as maximal compound concentration at 20 umol/L preincubated for 1 hr before Cu2+ challenge measured after 45 mins relative to compound present at 0 min
[10] = Antioxidant activity against Cu2+-induced lipid peroxidation in human plasma LDL assessed as conjugated diene formation at 5 umol/L preincubated for 1 hr before Cu2+ challenge measured after 60 mins
[11] = Antioxidant activity against Cu2+-induced lipid peroxidation in human plasma LDL assessed as conjugated diene formation at 10 umol/L preincubated for 1 hr before Cu2+ challenge measured after 180 mins
[12] = Antioxidant activity against Cu2+-induced lipid peroxidation in human plasma LDL assessed as conjugated diene formation at 10 umol/L preincubated for 1 hr before Cu2+ challenge measured after 120 mins
[13] = Antioxidant activity against Cu2+-induced lipid peroxidation in human plasma LDL assessed as vitamin E consumption at 5 umol/L preincubated for 1 hr before Cu2+ challenge measured after 90 mins
[14] = Antioxidant activity against Cu2+-induced lipid peroxidation in human plasma LDL assessed as maximal compound concentration at 20 umol/L preincubated for 1 hr before Cu2+ challenge measured after 150 mins relative to compound present at 0 min
[15] = Antioxidant activity against Cu2+-induced lipid peroxidation in human plasma LDL assessed as lysophosphatidylcholine formation preincubated for 1 hr before Cu2+ challenge
[16] = Antioxidant activity against Cu2+-induced lipid peroxidation in human plasma LDL assessed as lysophosphatidylcholine formation at 20 umol/L preincubated for 1 hr before Cu2+ challenge measured after 120 mins
[17] = Antioxidant activity against Cu2+-induced lipid peroxidation in human plasma LDL assessed as maximal compound concentration at 5 umol/L preincubated for 1 hr before Cu2+ challenge measured after 120 mins relative to compound present at 0 min
[18] = Antioxidant activity against Cu2+-induced lipid peroxidation in human plasma LDL assessed as conjugated diene formation at 5 umol/L preincubated for 1 hr before Cu2+ challenge measured after 270 mins
[19] = Antioxidant activity against Cu2+-induced lipid peroxidation in human plasma LDL assessed as lysophosphatidylcholine formation at 20 umol/L preincubated for 1 hr before Cu2+ challenge measured after 270 mins
[20] = Antioxidant activity against Cu2+-induced lipid peroxidation in human plasma LDL assessed as lysophosphatidylcholine formation at 5 umol/L preincubated for 1 hr before Cu2+ challenge measured after 120 mins
[21] = Antioxidant activity against Cu2+-induced lipid peroxidation in human plasma LDL assessed as vitamin E consumption at 10 umol/L preincubated for 1 hr before Cu2+ challenge measured after 30 mins
[22] = Antioxidant activity against Cu2+-induced lipid peroxidation in human plasma LDL assessed as lysophosphatidylcholine formation at 5 umol/L preincubated for 1 hr before Cu2+ challenge measured after 180 mins
[23] = Antioxidant activity against Cu2+-induced lipid peroxidation in human plasma LDL assessed as maximal compound concentration at 5 umol/L preincubated for 1 hr before Cu2+ challenge measured after 210 mins relative to compound present at 0 min
[24] = Antioxidant activity against Cu2+-induced lipid peroxidation in human plasma LDL assessed as lysophosphatidylcholine formation at 5 umol/L preincubated for 1 hr before Cu2+ challenge measured after 270 mins
[25] = Antioxidant activity against Cu2+-induced lipid peroxidation in human plasma LDL assessed as maximal compound concentration at 10 umol/L preincubated for 1 hr before Cu2+ challenge measured after 210 mins relative to compound present at 0 min
[26] = Antioxidant activity against Cu2+-induced lipid peroxidation in human plasma LDL assessed as maximal compound concentration at 20 umol/L preincubated for 1 hr before Cu2+ challenge measured after 30 mins relative to compound present at 0 min
[27] = Antioxidant activity against Cu2+-induced lipid peroxidation in human plasma LDL assessed as conjugated diene formation at 10 umol/L preincubated for 1 hr before Cu2+ challenge measured after 210 mins
[28] = Antioxidant activity against Cu2+-induced lipid peroxidation in human plasma LDL assessed as lysophosphatidylcholine formation at 5 umol/L preincubated for 1 hr before Cu2+ challenge measured after 150 mins
[29] = Antioxidant activity against Cu2+-induced lipid peroxidation in human plasma LDL assessed as maximal compound concentration at 10 umol/L preincubated for 1 hr before Cu2+ challenge measured after 30 mins relative to compound present at 0 min
[30] = Antioxidant activity against Cu2+-induced lipid peroxidation in human plasma LDL assessed as conjugated diene formation at 10 umol/L preincubated for 1 hr before Cu2+ challenge measured after 60 mins
[31] = Antioxidant activity against Cu2+-induced lipid peroxidation in human plasma LDL assessed as maximal compound concentration at 20 umol/L preincubated for 1 hr before Cu2+ challenge measured after 90 mins relative to compound present at 0 min
[32] = Antioxidant activity against Cu2+-induced lipid peroxidation in human plasma LDL assessed as maximal compound concentration at 10 umol/L preincubated for 1 hr before Cu2+ challenge measured after 45 mins relative to compound present at 0 min
[33] = Antioxidant activity against Cu2+-induced lipid peroxidation in human plasma LDL assessed as vitamin E consumption at 20 umol/L preincubated for 1 hr before Cu2+ challenge measured after 150 mins

CC(C)(Sc1cc(C(C)(C)C)c(O)c(C(C)(C)C)c1)Sc1cc(C(C)(C)C)c(O)c(C(C)(C)C)c1
Activity [1]: 37.9% | Activity [2]: 15.5% | Activity [3]: 118% | Activity [4]: 77.2% | Activity [5]: 114% | Activity [6]: 0% | Activity [7]: 4% | Activity [8]: 34.6% | Activity [9]: 87.7% | Activity [10]: 4.1% | Activity [11]: 77.3% | Activity [12]: 39.4% | Activity [13]: 0% | Activity [14]: 41.2% | Activity [15]: Dose-dependent effect | Activity [16]: 1% | Activity [17]: 56.5% | Activity [18]: 87.1% | Activity [19]: 1.5% | Activity [20]: 10.6% | Activity [21]: 17.8% | Activity [22]: 19.4% | Activity [23]: 36.8% | Activity [24]: 26.1% | Activity [25]: 21.6% | Activity [26]: 91.8% | Activity [27]: 76.3% | Activity [28]: 17.5% | Activity [29]: 82% | Activity [30]: 0.6% | Activity [31]: 44.1% | Activity [32]: 73% | Activity [33]: 0%
